Test systems include SF-295 CNS; BT-549 breast; MDA-N; PC-3 prostate; HCT-15 colon; 786-0 renal; CAKI-1 renal; HOP-92 NSCLC; SN12C renal.
Holding throughout (experiment): NCI tumour cell line growth inhibition, 48 h

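96-well plates; 48 h exposure; 5 concentrations. Endpoints by linear interpolation between flanking doses. Not reached: highest tested concentration assigned. Definition used: TGI = concentration required for complete inhibition of growth.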

As to `COC(=O)N1CC(=O)C(C(=O)NC23CC4CC(CC(C4)C2)C3)C1` (stereo not drawn), the TGI in the experiment on SF-295 CNS, in the experiment with BT-549 breast, in the experiment on MDA-N, in the experiment with PC-3 prostate, in the experiment with HCT-15 colon and in the experiment with 786-0 renal was above 100 µM in each case. Moreover, the TGI with CAKI-1 renal and in the experiment with HOP-92 NSCLC was above 100 µM throughout.
`COc1ccc(/C=C2/CSCC3=C2NC(=S)NC3c2ccc(OC)c(OC)c2OC)c(OC)c1OC` (stereo not drawn): the TGI in the experiment with SF-295 CNS is above 100 µM; in the experiment on PC-3 prostate, 46.2 µM; with HCT-15 colon, above 100 µM; in the experiment with SN12C renal, 71.8 µM; in the experiment on 786-0 renal, 40.7 µM; in the experiment on CAKI-1 renal it was 92.2 µM.
As to `CC(CC(N)C(=O)O)C(=O)O` (stereo not drawn), the TGI in the experiment with SF-295 CNS, in the experiment with BT-549 breast, in the experiment on MDA-N, in the experiment with PC-3 prostate, in the experiment on HCT-15 colon and in the experiment on SN12C renal was above 100 µM in each case. Further, the TGI in the experiment on 786-0 renal, with CAKI-1 renal and in the experiment on HOP-92 NSCLC was above 100 µM throughout.
With `COc1cccc(C23CCCC(C2)NCC3Br)c1OC` (stereo not drawn), the TGI was above 100 µM in the experiment on SF-295 CNS; 92.3 µM in the experiment with BT-549 breast; above 100 µM in the experiment on MDA-N; above 100 µM with PC-3 prostate; above 100 µM in the experiment on HCT-15 colon; above 100 µM in the experiment with SN12C renal. Besides, the TGI with 786-0 renal, with CAKI-1 renal and in the experiment on HOP-92 NSCLC was above 100 µM throughout.
`CCc1c2c(cc3c1CC1(C3)Cc3cc4c(c(C(=O)OC)c3C1)CCCC4)CCCC2` (stereo not drawn): the TGI in the experiment with SF-295 CNS, in the experiment with MDA-N, in the experiment on PC-3 prostate, with HCT-15 colon, in the experiment on SN12C renal and in the experiment on 786-0 renal was above 100 µM in each case. In addition, in the experiment with HOP-92 NSCLC, the TGI is above 100 µM.
For `Clc1cc2nn(C3CCCCO3)nc2cc1Cl` (stereo not drawn), the TGI with SF-295 CNS, in the experiment on BT-549 breast, with MDA-N, with PC-3 prostate, in the experiment with HCT-15 colon and in the experiment with SN12C renal was above 100 µM each time. The TGI in the experiment on 786-0 renal and in the experiment with CAKI-1 renal was above 100 µM each time.
Regarding `O=P1(c2ccccc2)c2ccccc2-c2ccccc21`, the TGI with SF-295 CNS, in the experiment with BT-549 breast, in the experiment on MDA-N, in the experiment with PC-3 prostate, in the experiment on HCT-15 colon and in the experiment on SN12C renal was above 100 µM each time. Moreover, the TGI in the experiment with 786-0 renal, in the experiment on CAKI-1 renal and in the experiment with HOP-92 NSCLC was above 100 µM throughout.
In the case of `CCOC(=O)c1cc(-n2nnc3ccccc32)cn1C`, the TGI with SF-295 CNS, with BT-549 breast, in the experiment on MDA-N, in the experiment on PC-3 prostate, in the experiment with HCT-15 colon and with SN12C renal was above 10 µM throughout. In addition, the TGI in the experiment with 786-0 renal, in the experiment on CAKI-1 renal and with HOP-92 NSCLC was above 10 µM each time.
Turning to `CC1(c2sccc2Cl)CC(c2sccc2Cl)=C(C#N)C(=C(C#N)C#N)N1` (stereo not drawn), the TGI in the experiment on SF-295 CNS is 35.2 µM; in the experiment with BT-549 breast it was 32.3 µM; with MDA-N, 35 µM; with PC-3 prostate, 32.8 µM; with HCT-15 colon, 35 µM; in the experiment on SN12C renal, 42.9 µM. Further, the TGI in the experiment with 786-0 renal was 34.5 µM; in the experiment on CAKI-1 renal, 36.1 µM.
Take `CN(CC(=O)O)c1ncc2c(n1)C=CCC2`: the TGI in the experiment with SF-295 CNS, with MDA-N, in the experiment on PC-3 prostate, in the experiment on HCT-15 colon, in the experiment with SN12C renal and in the experiment with 786-0 renal was above 100 µM in each case. Moreover, the TGI with CAKI-1 renal and with HOP-92 NSCLC was above 100 µM throughout.
Take `O=C1CSC(c2c[nH]c3ccccc23)N1c1ccc(Cl)cc1` (stereo not drawn): the TGI in the experiment with SF-295 CNS, in the experiment with BT-549 breast, with MDA-N, in the experiment with HCT-15 colon, in the experiment with SN12C renal and in the experiment with 786-0 renal was above 100 µM each time. Also, in the experiment with HOP-92 NSCLC, the TGI was above 100 µM.
As for `N#CC(N=Nc1ccccc1C(=O)O)C(N)=O` (stereo not drawn), the TGI with SF-295 CNS, in the experiment with BT-549 breast, with MDA-N, with PC-3 prostate, in the experiment with HCT-15 colon and in the experiment on SN12C renal was above 100 µM in each case. The TGI in the experiment on 786-0 renal and in the experiment with CAKI-1 renal was above 100 µM in each case.
For `CCOC(=O)/C=C(\C(=O)OCC)n1ccc(=O)n(Cc2cnnn2CCCCOC(C)=O)c1=O`, the TGI in the experiment on SF-295 CNS was above 59.8 µM; in the experiment with BT-549 breast, 30.2 µM; in the experiment on MDA-N, 51.4 µM; with PC-3 prostate, 30.8 µM; in the experiment on HCT-15 colon, 20.3 µM; in the experiment on SN12C renal it was 45.3 µM. For the same compound, the TGI in the experiment with 786-0 renal was above 37.5 µM; in the experiment on CAKI-1 renal it was 6.8 µM; in the experiment with HOP-92 NSCLC it was 5.63 µM.
In the case of `Oc1ccc([C@H]2c3c(O)cc(O)cc3C3c4c(cc(O)cc4[C@@H]2[C@H]2c4cc(O)cc5c4C(c4cc(O)cc(O)c4[C@@H]2c2ccc(O)cc2)[C@@H](c2ccc(O)cc2)O5)O[C@@H]3c2ccc(O)cc2)cc1` (stereo partly drawn), the TGI in the experiment on SF-295 CNS, in the experiment on BT-549 breast, with MDA-N, in the experiment with PC-3 prostate, in the experiment on HCT-15 colon and in the experiment on SN12C renal was above 100 µM throughout. The TGI with 786-0 renal and in the experiment on CAKI-1 renal was above 100 µM throughout.
As for `COc1cc(C2C3=C(COC3=O)Oc3cc4c(cc32)OCO4)ccc1O` (stereo not drawn), the TGI in the experiment with BT-549 breast is above 100 µM; with MDA-N, 0.346 µM; in the experiment with PC-3 prostate, above 83.2 µM; in the experiment on HCT-15 colon it was above 100 µM; in the experiment on SN12C renal, above 100 µM; in the experiment on 786-0 renal, above 100 µM. The results for the TGI in the experiment on CAKI-1 renal and in the experiment on HOP-92 NSCLC were 0.438 µM and above 78.1 µM, respectively.
Consider `COC(=O)C1CCC(=O)N1C(c1cc(OC)c(OC)c(OC)c1)c1cc(OC)c(OC)c(OC)c1` (stereo not drawn), for which the TGI in the experiment with SF-295 CNS, with MDA-N, in the experiment with PC-3 prostate, in the experiment with HCT-15 colon, with SN12C renal and in the experiment with 786-0 renal was above 100 µM throughout. In addition, the TGI in the experiment with HOP-92 NSCLC was above 100 µM.

The values are drawn from PubChem BioAssay (NCI).
